This is an account of results in paper PMC2644304 (Nature chemical biology, 2009).

The target in the assay is AcsD (Dickeya chrysanthemi, UniProt Q93AT8). The experiment in a line: X-ray crystal structure of the complex. It counts as binding. As to conditions: co-crystal with sulfate and citrate; ATP site.

In the case of `Nc1ncnc2c1ncn2[C@@H]1O[C@H](CO)[C@@H](O)[C@H]1O` [adenosine], the “X-ray crystal structure of the complex” value was “adenosine binds in the same pocket as seen in the ATP structure”.
